Test results as given in article PMC8904451, “Novel chalcone-derived pyrazoles as potential therapeutic agents for the treatment of non-small cell lung cancer” (Scientific Reports, 2022).

Experiments:
Assay type in all cases: cell-based, human
[1] = system: A-549 cells; test: Intracellular ROS measurement (H2DCFDA, flow cytometry)
From the text: The generation of intracellular reactive oxygen species (ROS) causes an imbalance of cellular redox homeostasis, followed by damage of cellular components and cell death. Therefore, compounds with the ability to produce high levels of ROS and/or inhibit antioxidant processes are often used in anticancer therapies. In the present study, the effect of PCH-1 on ROS generation in A-549 cells was investigated by flow cytometry. As an indicator of ROS generation, the fluorescent probe 2ʹ,7ʹ-dichlorodihydrofluorescein diacetate (H2DCFDA) was used, which undergoes oxidation by ROS to form a highly fluorescent compound 2ʹ,7ʹ-dichlorofluorescein (DCF). As shown in Supplementary Fig. S6 in Supplementary Information, compound PCH-1 induced a massive amount of ROS in A-549 cells in a time-dependent manner. […] Moreover, the induction of ROS was equally high for PCH-1 and the reference compound H2O2 in all the tested time points.
For determination the ROS generation, cells were treated with IC90 of PCH-1, H2O2, or 1% DMSO for 3, 6, and 24 h. Next, a 1 µM CM-H2DCFDA (#C6827; Thermo-Fisher) probe was added to the cells in each plate 30 min before the end of the drug treatment. After incubation cells were collected by trypsinization, stained with 7-Aminoactinomycin D (7-AAD, Sigma-Aldrich), and measured. The analysis was performed with Guava EasyCyte 8 cell sorter (Merck Millipore) and FlowJo software v10. Each experiment was repeated independently three times.

[2] = system: caspase-3/7 in H226 cells; test: Caspase-3/7 activation by flow cytometry, H226; settings: IC90
Protocol: To explain the type of cell death that cancer cells undergo after treatment with PCH-1, the ability of the compound to activate caspases 3–7 was determined by flow cytometry. […] The most pronounced activation of caspase 3 occurred equally in A-549 and H226 cell lines after 48 h of treatment and was sevenfold greater than that in the vehicle.
Cells were seeded onto tissue culture plates and allowed to attach for 24 h. Next, the cells were treated with PCH-1 or Etoposide at IC90 concentration for 6, 24, and 48 h. After incubation, the cells were harvested by trypsinization, rinsed twice with PBS, and stained with Annexin V Alexa Fluor™ 488 conjugate (Thermo Fisher, #A13201) for apoptosis assay and with CellEvent™ Caspase-3/7 Green Flow Cytometry Assay Kit (Thermo Fisher, #C10427) for caspase-3/7 activation according to the manufacturer’s protocols. The analysis was performed with Guava EasyCyte 8 cell sorter (Merck Millipore) and FlowJo software v10. Each experiment was repeated independently three times.

[3] = system: H460 cells; test: MTT cell viability assay, H460
Protocol: All the synthesized chalcone-derived pyrazoles were evaluated for their antiproliferative activity against three human non-small cell lung cancer cell lines: A-549, H226, and H460, and a nonmalignant human embryonic kidney cell line HEK293. Cisplatin and 5-fluorouracil (5-FU) were used as a reference. Cells were exposed to a range of PCH concentrations (0.5–100 µM) for 72 h and analyzed by 3-(4,5-dimethylthiazol-2-yl)-2,5-diphenyl-2H-tetrazolium bromide (MTT) assay. The results of the studies are expressed as the IC50 concentration that inhibits 50% growth of cells. […] Following treatment with PCH-1, the viability of all the tested cancer cell lines decreased in a concentration-dependent manner.
The cell viability assay was performed for A-549, H226, H460, and HEK293 cells after treatment with the test compounds by using the 3-(4,5-dimethylthiazol-2-yl)-2,5-diphenyltetrazolium bromide (MTT, Sigma-Aldrich) assay. Briefly, cells were seeded onto 96-well culture plates for attachment. After 24 h, triplicate wells were treated with DMSO (1%) and the agents. After 72 h of incubation at 37 °C in 5% CO2, the MTT solution (0.4 mg/ml) was added to each well. After 2–4 h of incubation, the medium was removed, and the formazan crystals were dissolved in 100 μl of DMSO. The absorption was measured at 450 nm with an ASYS UVM340 microplate reader (Biochrom Ltd.). The 50% inhibitory concentration (IC50) was defined as the concentration that reduced the absorbance of the DMSO-treated wells by 50% of the vehicle. The IC50 values were generated from GraphPad Prism 9 software by plotting the survival curve as a function of dose from 3 independent experiments.

[4] = system: A-549, H226, and H460 cells; test: Annexin V/PI apoptosis assay by flow cytometry; settings: 48 h, IC90, depending on the cell line; vehicle approximately 5%
Protocol: To examine whether the effect of PCH-1 on reducing the viability of lung cancer cells was the result of inducing apoptotic cell death, A-549, H226, and H460 cells were treated with the compound for 6, 24, and 48 h, and analyzed by Annexin V/propidium iodide (PI) double staining using flow cytometry (Fig. S1 in supplementary information). […] At 24 h of treatment with the compound, a slight increase in both early (Annexin V(+)/PI(−)) and late (Annexin V(+)/PI(+)) apoptotic fractions was observed. […] PI can enter only those cells with damaged plasma membrane, which enables to differentiate early apoptotic cells from late apoptotic and necrotic cells. Overall, biochemical changes involved in apoptotic cell death were prevailing, whereas necrotic changes were not observed. Furthermore, typical phenotypic features of cells undergoing apoptosis were visualized by fluorescent microscopy in Supplementary Fig. S2 and described in Supplementary Information.
Cells were seeded onto tissue culture plates and allowed to attach for 24 h. Next, the cells were treated with PCH-1 or Etoposide at IC90 concentration for 6, 24, and 48 h. […]

- IC50 ([3]; Homo sapiens, NCI-H460, 72 h, MTT, read-out: IC50 ± SD, growth inhibition, H460): 8.4 ± 1.1 µM
SMILES: COc1ccc(C2CC(c3cc4c(cc3OC)OCO4)=NN2C(C)=O)cc1 (stereo not drawn) [PCH-1, 1-[3-(6-methoxy-2H-1,3-benzodioxol-5-yl)-5-(4-methoxyphenyl)-4,5-dihydro-1H-pyrazol-1-yl]ethan-1-one]
- increase of ROS towards vehicle control ([1]; A-549, IC90, 3 h): 15%
- increase of ROS towards vehicle control ([1]; A-549, IC90, 6 h): 56.9%
- increase of ROS towards vehicle control ([1]; A-549, IC90, 24 h): 68.1%
- caspase-3/7 activation, increase compared to control, H226 ([2]; 6 h): 2.9 fold
- activation of caspase 3 vs vehicle, H226 ([2]; 48 h): sevenfold
- cells with activated caspase 3/7 vs control, H226 ([2]; later exposure): > 4.7 times
- superior activity to the reference compound Cisplatin, H460 ([3]; 72 h IC50 ratio): ~2.6 fold
- late apoptotic phase (Annexin V(+)/PI(+)) cells [4]: 30–60%
